Each block holds one compound with its values, some of them ahead of it.
Assays:
Assay type in all cases: biochemical
[1] = molecular target: PI3 Kinase γ (Homo sapiens, UniProt P48736); test: Fluorescence polarization assay for PI3K
Procedure: (§1) Fluorescence Polarization Assay for PI3K
(§2) This assay is used to determine the IC50 of compounds of the present invention as it identifies inhibitors of PI3 kinase by measuring inhibition.
(§3) Reaction Buffer: 20 mM HEPES, pH 7.5, 2 mM MgCl2, 0.05% CHAPS; and 0.01% BME (added fresh) Stop/Detection Buffer: 100 mM HEPES, pH 7.5, 4 mM EDTA, 0.05% CHAPS; ATP 20 mM in water; PIP2 (diC8, cat# P-4508) 1 mM in water (MW=856.5); GST-GRP 1.75 mg/mL or 1.4 mg/mL in 10% glycerol; Red detector (TAMRA) 2.5 μM; Plate: Nunc 384 well black polypropylene fluorescence plate.
(§4) The assay is run by placing 5 μL of diluted enzyme per well, then 5 μL of diluted compound (or 9.5 μL enzyme then 0.5 μL compound in DMSO) is added and mixed. Then, 10 μL substrate is added to start the reaction. The samples are incubated 30-60 minutes, then the reaction is stopped by adding 20 μL stop/detector mix. PI3K is diluted with reaction buffer (e.g., 5 μL or 7.5 μL PI3K into 620 μL reaction buffer), and 5 μL of diluted enzyme is used per well. 5 μL reaction buffer or drug diluted in buffer (e.g., 4 μL/100 so final DMSO is 1% in reaction) is added to each. Pipetting up and down mixes the samples. Alternatively, the enzyme can be diluted to 1215 μL. In this case 9.8 μL is added per well and 0.2 μL compound is added in DMSO. To prepare 1 mL of substrate solution, 955 μL reaction buffer, 40 μL PIP2, and 2.5 μL ATP are mixed. 10 μL of substrate is added to each well to start the reaction.
(§5) Stop/detector mix is prepared by mixing 4 μL Red detector and 1.6 μL or 2.0 μL GST-GRP with 1 mL Stop buffer, which results in 10 nM probe and 70 nM GST-GRP). 20 μL of the stop/detector mix is added to each well to stop the reaction. The plates are read after 30-90 minutes keeping the red probe solutions dark. For the zero time point, stop/detector mix is added to the enzyme just before adding substrate. For an extra control, stop/detector mix is added to buffer (no enzyme) and substrate or to just buffer (no substrate). […] The recommended reaction has 0.06 μL per 20 μL (0.015 μg/20 μL) or 0.01125 μg/15 μL or 0.75 μg/mL. Plates are read on machines with filters for Tamra. The units are mP with no enzyme controls reading app 190-220 mP units. Fully active enzyme reduces fluorescence polarization down to 70-100 mP after 30 minutes. An active compound raises the mP values halfway to control or to 120-150 mP units.

[2] = molecular target: PI3 Kinase α (Homo sapiens, UniProt P42336); test: Fluorescence polarization assay for PI3K
Procedure: as §1, §2, §3, §4, §5

[3] = molecular target: T1, Human mTOR (Homo sapiens, UniProt P42345); test: mTOR kinase assay (DELFIA format, purified enzyme); details: His6-S6K substrate, read-out: TOR Kinase IC50
T1 construct: FLAG
Procedure: mTOR Kinase Assay Methods
Human mTOR assays (See Toral-Barza, et al. Biochem Biophys. Res. Commun. 2005 Jun. 24; 332(1):304-10) with purified enzyme are performed in 96-well plates by DELFIA format as follows. Enzymes are first diluted in kinase assay buffer (10 mM HEPES (pH 7.4), 50 mM NaCl, 50 mM β-glycerophosphate, 10 mM MnCl2, 0.5 mM DTT, 0.25 mM microcystin LR, and […]). To each well, 12 μL of the diluted enzyme is mixed briefly with 0.5 μL test inhibitor or control vehicle dimethylsulfoxide (DMSO). The kinase reaction is initiated by adding 12.5 μL kinase assay buffer containing ATP and His6-S6K to give a final reaction volume of 25 μL containing 800 ng/mL FLAG-TOR, […] and […]. The reaction plate is incubated for 2 hours (linear at 1-6 hours) at room temperature with gentle shaking and then terminated by adding 25 μL Stop buffer (20 mM HEPES (pH 7.4), 20 mM EDTA, 20 mM EGTA). The DELFIA detection of the phosphorylated (Thr-389) His6-S6K is performed at room temperature using a monoclonal anti-P(T389)-p70S6K antibody (1A5, Cell Signaling) labeled with Europium-N1-ITC (Eu) (10.4 Eu per antibody, PerkinElmer). The DELFIA Assay buffer and Enhancement solution can be purchased from PerkinElmer. 45 μL of the terminated kinase reaction mixture is transferred to a MaxiSorp plate (Nunc) containing 55 μL PBS. The His6-S6K is allowed to attach for 2 hours after which the wells are aspirated and washed once with PBS. 100 μL of DELFIA Assay buffer with 40 ng/mL Eu-P(T389)-S6K antibody is added. The antibody binding is continued for 1 hour with gentle agitation. The wells are then aspirated and washed 4 times with PBS containing 0.05% Tween-20 (PBST). 100 μL of DELFIA Enhancement solution is added to each well and the plates are read in a PerkinElmer Victor model plate reader. Data obtained is used to calculate enzymatic activity and enzyme inhibition by potential inhibitors.

Chain of PI3 Kinase α (P42336 whole entry): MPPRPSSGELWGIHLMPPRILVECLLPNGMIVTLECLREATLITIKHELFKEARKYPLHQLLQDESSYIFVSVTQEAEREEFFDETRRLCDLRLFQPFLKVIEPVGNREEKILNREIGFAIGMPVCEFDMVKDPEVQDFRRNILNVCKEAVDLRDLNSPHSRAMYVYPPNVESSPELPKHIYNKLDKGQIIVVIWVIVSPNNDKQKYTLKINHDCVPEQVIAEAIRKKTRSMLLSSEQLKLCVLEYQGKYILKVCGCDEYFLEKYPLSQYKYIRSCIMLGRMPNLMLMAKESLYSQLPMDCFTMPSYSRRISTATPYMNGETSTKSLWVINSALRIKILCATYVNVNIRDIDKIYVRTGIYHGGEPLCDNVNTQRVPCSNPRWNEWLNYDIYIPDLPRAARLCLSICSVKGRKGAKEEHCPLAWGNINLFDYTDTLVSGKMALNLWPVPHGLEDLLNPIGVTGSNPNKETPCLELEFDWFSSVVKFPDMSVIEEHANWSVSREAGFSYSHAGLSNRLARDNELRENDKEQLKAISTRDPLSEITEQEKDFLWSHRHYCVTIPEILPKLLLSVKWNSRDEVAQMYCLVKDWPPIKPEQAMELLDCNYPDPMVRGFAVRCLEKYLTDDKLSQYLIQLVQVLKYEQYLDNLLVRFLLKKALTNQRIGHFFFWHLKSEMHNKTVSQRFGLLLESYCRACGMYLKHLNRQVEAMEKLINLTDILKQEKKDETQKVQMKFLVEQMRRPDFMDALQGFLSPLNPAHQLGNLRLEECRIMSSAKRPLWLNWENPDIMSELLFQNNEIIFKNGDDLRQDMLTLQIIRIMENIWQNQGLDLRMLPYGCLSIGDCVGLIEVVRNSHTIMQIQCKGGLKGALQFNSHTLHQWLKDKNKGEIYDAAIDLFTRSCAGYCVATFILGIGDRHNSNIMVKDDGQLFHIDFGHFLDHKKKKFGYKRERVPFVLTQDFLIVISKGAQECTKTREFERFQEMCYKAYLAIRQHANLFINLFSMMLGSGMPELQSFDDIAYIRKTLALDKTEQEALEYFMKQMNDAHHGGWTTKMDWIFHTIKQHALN
Chain of PI3 Kinase α (P27986 whole entry partner): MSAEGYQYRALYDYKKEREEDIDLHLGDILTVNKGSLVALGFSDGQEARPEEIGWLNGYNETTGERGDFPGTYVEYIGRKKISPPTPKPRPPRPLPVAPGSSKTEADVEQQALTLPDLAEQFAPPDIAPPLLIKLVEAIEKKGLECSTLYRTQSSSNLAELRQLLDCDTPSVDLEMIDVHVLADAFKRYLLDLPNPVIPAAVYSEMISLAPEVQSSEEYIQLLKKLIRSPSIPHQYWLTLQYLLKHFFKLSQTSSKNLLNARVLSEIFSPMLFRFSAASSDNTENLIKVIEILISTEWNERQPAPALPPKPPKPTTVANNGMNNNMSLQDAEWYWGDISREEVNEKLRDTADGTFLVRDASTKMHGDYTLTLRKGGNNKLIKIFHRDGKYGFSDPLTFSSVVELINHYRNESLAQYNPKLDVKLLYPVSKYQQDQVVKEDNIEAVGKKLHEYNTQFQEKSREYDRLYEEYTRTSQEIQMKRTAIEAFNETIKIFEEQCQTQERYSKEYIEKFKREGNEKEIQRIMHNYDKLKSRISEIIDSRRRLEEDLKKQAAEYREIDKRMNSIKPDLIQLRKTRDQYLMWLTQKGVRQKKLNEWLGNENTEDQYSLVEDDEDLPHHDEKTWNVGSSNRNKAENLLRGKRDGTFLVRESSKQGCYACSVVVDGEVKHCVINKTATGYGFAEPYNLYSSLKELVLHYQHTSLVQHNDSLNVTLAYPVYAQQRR
Chain of PI3 Kinase γ (P48736 whole entry): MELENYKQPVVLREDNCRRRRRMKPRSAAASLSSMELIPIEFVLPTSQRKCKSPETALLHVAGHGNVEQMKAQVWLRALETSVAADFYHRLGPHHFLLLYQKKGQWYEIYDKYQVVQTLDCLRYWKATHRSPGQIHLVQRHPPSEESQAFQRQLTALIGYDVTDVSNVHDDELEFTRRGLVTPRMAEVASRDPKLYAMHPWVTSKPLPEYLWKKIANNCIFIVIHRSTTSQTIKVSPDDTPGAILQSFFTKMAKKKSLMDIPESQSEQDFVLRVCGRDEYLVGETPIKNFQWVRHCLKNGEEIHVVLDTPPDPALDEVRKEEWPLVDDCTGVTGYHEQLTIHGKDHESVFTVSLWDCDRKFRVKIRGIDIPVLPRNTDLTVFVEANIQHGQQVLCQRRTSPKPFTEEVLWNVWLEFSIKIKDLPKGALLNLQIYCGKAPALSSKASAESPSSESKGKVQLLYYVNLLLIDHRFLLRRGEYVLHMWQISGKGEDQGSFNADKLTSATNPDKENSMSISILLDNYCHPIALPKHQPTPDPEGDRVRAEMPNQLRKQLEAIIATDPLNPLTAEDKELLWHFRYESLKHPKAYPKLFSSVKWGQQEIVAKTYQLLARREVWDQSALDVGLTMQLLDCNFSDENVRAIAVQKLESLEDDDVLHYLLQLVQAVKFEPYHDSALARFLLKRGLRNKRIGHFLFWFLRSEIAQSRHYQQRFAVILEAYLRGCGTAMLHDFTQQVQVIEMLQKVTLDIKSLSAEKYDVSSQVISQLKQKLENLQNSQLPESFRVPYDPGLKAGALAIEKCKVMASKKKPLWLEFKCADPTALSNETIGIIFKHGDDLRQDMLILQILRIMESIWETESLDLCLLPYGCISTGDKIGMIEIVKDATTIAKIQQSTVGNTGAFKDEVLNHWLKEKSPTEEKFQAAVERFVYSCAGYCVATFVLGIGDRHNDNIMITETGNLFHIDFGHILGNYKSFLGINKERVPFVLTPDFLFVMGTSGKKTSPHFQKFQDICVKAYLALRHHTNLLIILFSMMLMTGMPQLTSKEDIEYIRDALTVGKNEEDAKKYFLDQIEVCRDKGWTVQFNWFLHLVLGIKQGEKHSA

Compound: 5-[9-{1-[(5-bromopyridin-3-yl)methyl]piperidin-4-yl}-6-(3,6-dihydro-2H-pyran-4-yl)-9H-purin-2-yl]pyridin-3-ol [Compound 35]
IC50 [1]: 6740 nM
IC50 [2]: 1340 nM
IC50 [3]: 9800 nM

Compound: Oc1cccc(-c2nc(C3=CCOCC3)c3nc[nH]c3n2)c1 [Compound 11, 3-[6-(3,6-dihydro-2H-pyran-4-yl)-9H-purin-2-yl]phenol]
IC50 [1]: 1250 nM
IC50 [2]: 85 nM
IC50 [3]: 1400 nM

Compound: Oc1cccc(-c2nc(C3=CCOCC3)c3ncn(C4CCN(Cc5ccccc5)CC4)c3n2)c1 [Compound 12, 3-[9-(1-benzylpiperidin-4-yl)-6-(3,6-dihydro-2H-pyran-4-yl)-9H-purin-2-yl]phenol]
IC50 [1]: 5000 nM
IC50 [2]: 1770 nM
IC50 [3]: 1800 nM

Compound: Oc1cccc(-c2nc(C3=CCOCC3)c3ncn(C4CCN(Cc5ccco5)CC4)c3n2)c1 [Compound 13, 3-{6-(3,6-dihydro-2H-pyran-4-yl)-9-[1-(2-furylmethyl)piperidin-4-yl]-9H-purin-2-yl}phenol]
IC50 [1]: 859 nM
IC50 [2]: 832 nM
IC50 [3]: 1400 nM

Compound: Oc1cccc(-c2nc(C3=CCOCC3)c3ncn(C4CCN(Cc5ccc(N6CCOCC6)nc5)CC4)c3n2)c1 [Compound 14, 3-[6-(3,6-dihydro-2H-pyran-4-yl)-9-{1-[(6-morpholin-4-ylpyridin-3-yl)methyl]piperidin-4-yl}-9H-purin-2-yl]phenol]
IC50 [1]: > 10000 nM
IC50 [2]: 1490 nM
IC50 [3]: 860 nM

Compound: Oc1cccc(-c2nc(C3=CCOCC3)c3ncn(C4CCN(Cc5ccc[nH]5)CC4)c3n2)c1 [Compound 15, 3-{6-(3,6-dihydro-2H-pyran-4-yl)-9-[1-(1H-pyrrol-2-ylmethyl)piperidin-4-yl]-9H-purin-2-yl}phenol]
IC50 [1]: 736 nM
IC50 [2]: 280 nM
IC50 [3]: 1400 nM

Compound: CN1CCC(n2cnc3c(C4=CCOCC4)nc(-c4cccc(O)c4)nc32)CC1 [Compound 16, 3-[6-(3,6-dihydro-2H-pyran-4-yl)-9-(1-methylpiperidin-4-yl)-9H-purin-2-yl]phenol]
IC50 [1]: 3200 nM
IC50 [2]: 1630 nM
IC50 [3]: 2300 nM

Compound: Oc1cccc(-c2nc(C3=CCOCC3)c3ncn(C4CCN(Cc5cnc[nH]5)CC4)c3n2)c1 [Compound 17, 3-{6-(3,6-dihydro-2H-pyran-4-yl)-9-[1-(1H-imidazol-5-ylmethyl)piperidin-4-yl]-9H-purin-2-yl}phenol]
IC50 [1]: 2580 nM
IC50 [2]: 1060 nM
IC50 [3]: 1200 nM

Compound: Cc1ccc(CN2CCC(n3cnc4c(C5=CCOCC5)nc(-c5cccc(O)c5)nc43)CC2)cc1 [Compound 18, 3-{6-(3,6-dihydro-2H-pyran-4-yl)-9-[1-(4-methylbenzyl)piperidin-4-yl]-9H-purin-2-yl}phenol]
IC50 [1]: 12000 nM
IC50 [2]: 12000 nM
IC50 [3]: 2100 nM

Compound: Oc1cccc(-c2nc(C3=CCOCC3)c3ncn(C4CCN(Cc5ccc(Br)nc5)CC4)c3n2)c1 [Compound 19, 3-[9-{1-[(6-bromopyridin-3-yl)methyl]piperidin-4-yl}-6-(3,6-dihydro-2H-pyran-4-yl)-9H-purin-2-yl]phenol]
IC50 [1]: > 10000 nM
IC50 [2]: 5000 nM
IC50 [3]: 690 nM

Compound: Oc1cccc(-c2nc(C3=CCOCC3)c3ncn(C4CCN(Cc5ccc(F)c(F)c5)CC4)c3n2)c1 [Compound 20, 3-{9-[1-(3,4-difluorobenzyl)piperidin-4-yl]-6-(3,6-dihydro-2H-pyran-4-yl)-9H-purin-2-yl}phenol]
IC50 [1]: > 10000 nM
IC50 [2]: 7000 nM

Compound: OCc1cccc(-c2nc(C3=CCOCC3)c3ncn(C4CCN(Cc5ccccc5)CC4)c3n2)c1 [Compound 21, {3-[9-(1-benzylpiperidin-4-yl)-6-(3,6-dihydro-2H-pyran-4-yl)-9H-purin-2-yl]phenyl}methanol]
IC50 [1]: 4360 nM
IC50 [2]: 952 nM
IC50 [3]: 3500 nM

Continued, values first:

IC50 [1]: 1610 nM
IC50 [2]: 2420 nM
IC50 [3]: 14000 nM
Compound: 7,9-dibenzyl-6-(3,6-dihydro-2H-pyran-4-yl)-2-(3-hydroxyphenyl)-7,9-dihydro-8H-purin-8-one [Compound 66]

IC50 [1]: 5400 nM
IC50 [2]: 1050 nM
IC50 [3]: 1900 nM
Compound: OCc1cccc(-c2nc(C3=CCOCC3)c3ncn(C4CCN(Cc5ccc(F)nc5)CC4)c3n2)c1 [Compound 22, {3-[6-(3,6-dihydro-2H-pyran-4-yl)-9-{1-[(6-fluoropyridin-3-yl)methyl]piperidin-4-yl}-9H-purin-2-yl]phenyl}methanol]

IC50 [1]: 7370 nM
IC50 [2]: 1490 nM
IC50 [3]: 3800 nM
Compound: OCc1cccc(-c2nc(C3=CCOCC3)c3ncn(C4CCN(Cc5cccnc5)CC4)c3n2)c1 [Compound 23, (3-{6-(3,6-dihydro-2H-pyran-4-yl)-9-[1-(pyridin-3-ylmethyl)piperidin-4-yl]-9H-purin-2-yl}phenyl)methanol]

IC50 [1]: 7620 nM
IC50 [2]: 1690 nM
IC50 [3]: 1700 nM
Compound: OCc1cccc(-c2nc(C3=CCOCC3)c3ncn(C4CCN(Cc5ccccn5)CC4)c3n2)c1 [Compound 24, (3-{6-(3,6-dihydro-2H-pyran-4-yl)-9-[1-(pyridin-2-ylmethyl)piperidin-4-yl]-9H-purin-2-yl}phenyl)methanol]

IC50 [1]: 1340 nM
IC50 [2]: 228 nM
IC50 [3]: 890 nM
Compound: OCc1cccc(-c2nc(C3=CCOCC3)c3ncn(C4CCN(Cc5ccc(Br)nc5)CC4)c3n2)c1 [Compound 25, {3-[9-{1-[(6-bromopyridin-3-yl)methyl]piperidin-4-yl}-6-(3,6-dihydro-2H-pyran-4-yl)-9H-purin-2-yl]phenyl}methanol]

IC50 [1]: 7000 nM
IC50 [2]: 2670 nM
IC50 [3]: > 4000 nM
Compound: O=C(Nc1ccc(-c2nc(C3=CCOCC3)c3ncn(C4CCNCC4)c3n2)cc1)NC1CCNCC1 [Compound 26, 1-{4-[6-(3,6-dihydro-2H-pyran-4-yl)-9-piperidin-4-yl-9H-purin-2-yl]phenyl}-3-piperidin-4-ylurea]

IC50 [1]: 1080 nM
IC50 [2]: 3030 nM
IC50 [3]: > 4000 nM
Compound: O=C(Nc1ccc(-c2nc(C3=CCOCC3)c3ncn(C4CCN(Cc5ccc[nH]5)CC4)c3n2)cc1)NC1CCN(C(=O)OCc2ccccc2)CC1 [Compound 27, benzyl 4-{[(4-{6-(3,6-dihydro-2H-pyran-4-yl)-9-[1-(1H-pyrrol-2-ylmethyl)piperidin-4-yl]-9H-purin-2-yl}phenyl)carbamoyl]amino}piperidine-1-carboxylate]

IC50 [1]: 2400 nM
IC50 [2]: 384 nM
IC50 [3]: 3600 nM
Compound: Oc1cncc(-c2nc(C3=CCOCC3)c3ncn(C4CCN(Cc5ccccc5)CC4)c3n2)c1 [Compound 28, 5-[9-(1-benzylpiperidin-4-yl)-6-(3,6-dihydro-2H-pyran-4-yl)-9H-purin-2-yl]pyridin-3-ol]

Source: patent US20090192176A1, “1H-PYRAZOLO[3,4-D]PYRIMIDINE, PURINE, 7H-PURIN-8(9H)-ONE, 3H-[1,2,3]TRIAZOLO[4,5-D]PYRIMIDINE, AND THIENO[3,2-D]PYRIMIDINE COMPOUNDS, THEIR USE AS mTOR KINASE AND PI3 KINASE INHIBITORS, AND THEIR SYNTHESES” (Wyeth, priority 2008, published 2009)
